Reference: ChEMBL document CHEMBL1125643, “N-(5-fluorobenzothiazol-2-yl)-2-guanidinothiazole-4-carboxamide. A novel, systemically active antitumor agent effective against 3LL Lewis lung carcinoma” (J Med Chem, 1991)

Tests used:
[1] = Drug related lethality is percent animals in treated groups dying prior to first tumor related death in untreated groups measured in BDF1 mice after ip administration at 50 mg/kg dose 2-4 days after tumor challenge; assay type: toxicity, organism-based; design: dose 50 mg/kg, route intraperitoneal; settings: BDF1, mus sp., in vivo, read-out: Lethality
Mus sp. [2] = assay: In vivo activity measured against 3LL metastasis in BDF1 mice after ip administration at 100 mg/kg dose, dosing on days 2-4 after tumor challenge; assay type: functional; settings: route intraperitoneal
Mus sp. [3] = assay: In vivo activity measured against 3LL metastasis in BDF1 mice after ip administration at 100 mg/kg dose, dosing on days 3-6 after tumor challenge; assay type: functional; settings: route intraperitoneal
Mus sp. [4] = assay: In vivo activity measured against 3LL metastasis in BDF1 mice after ip administration at 200 mg/kg dose, dosing on days 2-4 after tumor challenge; assay type: functional; settings: route intraperitoneal
Mus sp. [5] = assay: In vivo activity measured against 3LL metastasis in BDF1 mice after ip administration at 25 mg/kg dose, dosing on days 2-4 after tumor challenge; assay type: functional; settings: route intraperitoneal
Mus sp. [6] = assay: In vivo activity measured against 3LL metastasis in BDF1 mice after ip administration at 50 mg/kg dose, dosing on days 2-4 after tumor challenge; assay type: functional; settings: route intraperitoneal
Mus sp. [7] = assay: In vivo activity measured against 3LL metastasis in BDF1 mice after ip administration at 50 mg/kg dose, dosing on days 3-6 after tumor challenge; assay type: functional; settings: route intraperitoneal
[8] = Drug related lethality is percent animals in treated groups dying prior to first tumor related death in untreated groups measured in BDF1 mice after ip administration at 25 mg/kg dose 2-4 days after tumor challenge; assay type: toxicity, organism-based; design: dose 25 mg/kg, route intraperitoneal; settings: BDF1, mus sp., in vivo, read-out: Lethality
[9] = Drug related lethality is percent animals in treated groups dying prior to first tumor related death in untreated groups measured in BDF1 mice after ip administration at 100 mg/kg dose 2-4 days after tumor challenge; assay type: toxicity, organism-based; design: dose 100 mg/kg, route intraperitoneal; settings: BDF1, mus sp., in vivo, read-out: Lethality
[10] = Drug related lethality is percent animals in treated groups dying prior to first tumor related death in untreated groups measured in BDF1 mice after ip administration at 100 mg/kg dose 3-6 days after tumor challenge; assay type: toxicity, organism-based; design: dose 100 mg/kg, route intraperitoneal; settings: BDF1, mus sp., in vivo, read-out: Lethality
[11] = Drug related lethality is percent animals in treated groups dying prior to first tumor related death in untreated groups measured in BDF1 mice after ip administration at 200 mg/kg dose 2-4 days after tumor challenge; assay type: toxicity, organism-based; design: dose 200 mg/kg, route intraperitoneal; settings: BDF1, mus sp., in vivo, read-out: Lethality
[12] = Drug related lethality is percent animals in treated groups dying prior to first tumor related death in untreated groups measured in BDF1 mice after iv administration at 10 mg/kg dose 3 days after tumor challenge; assay type: toxicity, organism-based; design: dose 10 mg/kg, route intravenous; settings: BDF1, mus sp., in vivo, read-out: Lethality
[13] = Drug related lethality is percent animals in treated groups dying prior to first tumor related death in untreated groups measured in BDF1 mice after iv administration at 15 mg/kg dose 3 days after tumor challenge; assay type: toxicity, organism-based; design: dose 15 mg/kg, route intravenous; settings: BDF1, mus sp., in vivo, read-out: Lethality
[14] = Drug related lethality is percent animals in treated groups dying prior to first tumor related death in untreated groups measured in BDF1 mice after iv administration at 18 mg/kg dose 3 days after tumor challenge; assay type: toxicity, organism-based; design: dose 18 mg/kg, route intravenous; settings: BDF1, mus sp., in vivo, read-out: Lethality
[15] = Drug related lethality is percent animals in treated groups dying prior to first tumor related death in untreated groups measured in BDF1 mice after iv administration at 2.5 mg/kg dose 3 days after tumor challenge; assay type: toxicity, organism-based; design: dose 2.5 mg/kg, route intravenous; settings: BDF1, mus sp., in vivo, read-out: Lethality
Mus sp. [16] = assay: In vivo activity against 3LL metastasis in BDF1 mice after iv administration at 10 mg/kg dose, dosing on days 3 after tumor challenge; assay type: functional
Mus sp. [17] = assay: In vivo activity against 3LL metastasis in BDF1 mice after iv administration at 18 mg/kg dose, dosing on days 3 after tumor challenge; assay type: functional
[18] = Drug related lethality is percent animals in treated groups dying prior to first tumor related death in untreated groups measured in BDF1 mice after iv administration at 20 mg/kg dose 3 days after tumor challenge; assay type: toxicity, organism-based; design: dose 20 mg/kg, route intravenous; settings: BDF1, mus sp., in vivo, read-out: Lethality
[19] = Drug related lethality is percent animals in treated groups dying prior to first tumor related death in untreated groups measured in BDF1 mice after iv administration at 25 mg/kg dose 3 days after tumor challenge; assay type: toxicity, organism-based; design: dose 25 mg/kg, route intravenous; settings: BDF1, mus sp., in vivo, read-out: Lethality
[20] = Drug related lethality is percent animals in treated groups dying prior to first tumor related death in untreated groups measured in BDF1 mice after iv administration at 30 mg/kg dose 3 days after tumor challenge; assay type: toxicity, organism-based; design: dose 30 mg/kg, route intravenous; settings: BDF1, mus sp., in vivo, read-out: Lethality
[21] = Drug related lethality is percent animals in treated groups dying prior to first tumor related death in untreated groups measured in BDF1 mice after iv administration at 5 mg/kg dose 3 days after tumor challenge; assay type: toxicity, organism-based; design: dose 5 mg/kg, route intravenous; settings: BDF1, mus sp., in vivo, read-out: Lethality
Mus sp. [22] = assay: In vivo activity measured against 3LL metastasis in BDF1 mice after iv administration at 15 mg/kg dose, dosing on days 3 after tumor challenge; assay type: functional
Mus sp. [23] = assay: In vivo activity measured against 3LL metastasis in BDF1 mice after iv administration at 2.5 mg/kg dose, dosing on days 3 after tumor challenge; assay type: functional
Mus sp. [24] = assay: In vivo activity measured against 3LL metastasis in BDF1 mice after iv administration at 20 mg/kg dose, dosing on days 3 after tumor challenge; assay type: functional
Mus sp. [25] = assay: In vivo activity measured against 3LL metastasis in BDF1 mice after iv administration at 25 mg/kg dose, dosing on days 3 after tumor challenge; assay type: functional
Mus sp. [26] = assay: In vivo activity measured against 3LL metastasis in BDF1 mice after iv administration at 5 mg/kg dose, dosing on days 3 after tumor challenge; assay type: functional
Mus sp. [27] = assay: In vivo activity measured against 3LL metastasis in BDF1 mice after ip administration at 10 mg/kg dose, dosing on days 3 after tumor challenge; assay type: functional, organism-based; design: dose 10 mg/kg
Mus sp. [28] = assay: In vivo activity measured against 3LL metastasis in BDF1 mice after ip administration at 5 mg/kg dose, dosing on days 3 after tumor challenge; assay type: functional, organism-based; design: dose 5 mg/kg

O=c1[nH]cc(F)c(=O)[nH]1 [FLUOROURACIL]
mortality [1]: 0%
T/C (Mus sp. [2]): 127%
T/C (Mus sp. [3]): 125%
T/C (Mus sp. [4]): 141%
T/C (Mus sp. [5]): 114%
T/C (Mus sp. [6]): 118%
T/C (Mus sp. [7]): 109%
mortality [8]: 0%
mortality [9]: 0%
mortality [10]: 14%
mortality [11]: 28%

COc1cccc2c1C(=O)c1c(O)c3c(c(O)c1C2=O)C[C@@](O)(C(=O)CO)C[C@@H]3O[C@H]1C[C@H](N)[C@H](O)[C@H](C)O1 [DOXORUBICIN]
mortality at 72 h [12]: 0%
mortality at 72 h [13]: 21%
mortality at 72 h [14]: 0%
mortality at 72 h [15]: 0%
T/C (Mus sp. [16]): 137%
T/C (Mus sp. [17]): 191%
mortality at 72 h [18]: 15%
mortality at 72 h [19]: 72%
mortality at 72 h [20]: 100%
mortality at 72 h [21]: 0%
T/C (Mus sp. [22]): 215%
T/C (Mus sp. [23]): 120%
T/C (Mus sp. [24]): 189%
T/C (Mus sp. [25]): 197%
T/C (Mus sp. [26]): 115%

CISPLATIN
T/C (Mus sp. [27]): 116%
T/C (Mus sp. [28]): 112%
